The values below are quoted from earlier work in patent US20190274964A1, “NEW IMPROVED COMPOSITION OF RACECADOTRIL” (JOHNSON & JOHNSON CONSUMER INC., priority 2016, published 2019).

The data set has as its system castor-oil induced diarrhea. Particulars: rats.

With `O=C(O)CNC(=O)C(CS)Cc1ccccc1` (centres unmarked) [thiorphan], the “Inhibition of castor-oil induced diarrhea” value is “inhibit castor-oil induced diarrhea”. For the same compound, the “Protection against diarrhea as measured by cumulative stool weight and time to onset” value (intravenous administration, most prominent during first two hours following challenge) is “dose-dependent protection against diarrhea”.
Take `CC(=O)SCC(Cc1ccccc1)C(=O)NCC(=O)OCc1ccccc1` (centres unmarked) [Racecadotril, benzyl N-[3-(acetylthio)-2 benzylpropanoyl] glycinate]: the “Inhibition of castor-oil induced diarrhea” value is “inhibit castor-oil induced diarrhea”. Also, the “Cumulative stool weight following challenge with castor oil” value (pre-treatment p.o.) was “reduction in cumulative stool weight”. The Time to onset entry (pre-treatment p.o., dose-response relationship could not be established) is “significantly delayed”.
